Columns and labels:
[1] = test system: sigma (non-selective) (h); assay: CEREP radioligand binding; parameters: species or system human; details: radioligand [^3H]-DTG
Source text: Supplement Table1.docx, table 3: Supplementary Table S3. RG7774 binding to non-CB1R/CB2R receptors, ion channels, transporters, and enzymes (CEREP, Celle l’Evescault, France; http://www.cerep.fr). | column: % inhibition of control SB (n = 2)

[2] = test system: LPS-induced vascular leakage; assay: LPS-induced vascular permeability in mice with EIU (fluorophotometry); type: in vivo, C57Bl6/J mice
Method: Twenty-four female C57Bl6/J mice, 10 weeks old and weighing 18–20 g (Charles River, Sulzfeld, Germany) were housed in individually ventilated GM500 cages (Tecniplast, Pontremoli, Italy) with a maximum density of n = 4 mice with the same litter and sex. The room was kept at 20°C–24°C with 50%–60% humidity and a 12/12 h light-dark cycle. Animals were held on a standard mouse diet with ad libitum access to food and water.
Mice were anesthetized with isoflurane 3% in 100% O2, a drop of 1% Novesin 0.4% (Omnivision, Pucheim, Germany) and a drop of Tropicamide 1% w/v (Bausch + Lomb Incorporated, Kingston, United Kingdom). Eyes were subsequently cleaned with povidone iodine 5% Ophthalmic Prep Solution (Alcon, Geneva, Switzerland) and were immediately pre-punctured with a 30-gauge needle. Both eyes were injected with a single 1 µL IVT injection of 1 ng LPS (Sigma-Aldrich, St. Louis, MO, United States) or a single injection of Dulbecco’s phosphate buffered saline (PBS) (Fisher Scientific, Schwerte, Germany) (vehicle control) using a Nanofil syringe connected to a 34-gauge needle.
Vehicle solution [w/w] was prepared using 0.1% hydroxyethyl cellulose, 1.0% polysorbate 80, 0.18% methylparaben, and 0.02% propylparaben in 10 mM citrate (pH 6.0). RG7774 (0.6 and 2.0 mg/mL) was added to freshly prepared vehicle, stirred on a magnetic stirrer for at least 15 min, and a volume of 5 mL/kg was administered directly to the stomach of each EIU mouse using a 1 mL syringe with an oral gavage needle. Gavage was performed twice daily (6 mg/kg/day BID and 20 mg/kg/day BID) on the evening and morning prior to LPS injection, on the evening after LPS injection, and on the morning before fluorophotometry.
Mice were anesthetized 24 h after receiving LPS or vehicle control using subcutaneous (SC) injections of fentanyl 0.05 mg/kg, medetomidine 0.5 mg/kg, and midazolam 5 mg/kg. […] Fundus infrared and fundus fluorescein angiography (FFA) images of both eyes were recorded 30 min later using optical coherence tomography (OCT)/FFA (Spectralis HRA-OCT, Heidelberg Engineering, Heidelberg, Germany) with a 55° lens focused on the optic nerve with the optic disc in the center of the image to obtain sharp images of the fundus. […] The supernatant (10 µL) was diluted in 990 µL PBS in a microcuvette (PS Micro Photometer Cuvette 2 mL, 10 mm × 10 mm × 45 mm; LP Italiana, Milan, Italy) and samples were analyzed in duplicate using the FM-2 Fluorotron (450–490 nm excitation; 520–600 nm emission detection). […]
To quantify fluorotron measurements, raw files were generated, exported as txt. files, and plotted using Microsoft Excel. The average area under the curve (AUC) was calculated for 5 steps in each of the regions of the scans corresponding to retina, vitreous, and anterior chamber peaks. […]

Human MAGL = target: T1, Human MAGL (Homo sapiens, UniProt Q99685); assay: Human MAGL assay (U937 cell extracts); type: biochemical; details: RG7774 10 µM; read-out: Mean ± SEM % inhibition of control, Human MAGL
T1 construct: Mouse brain or human U937 cell extracts (ATCC, Manassas, VI, USA); host or cells: U937 cells, 100,000 g supernatant
T1 sequence (Q99685 whole entry): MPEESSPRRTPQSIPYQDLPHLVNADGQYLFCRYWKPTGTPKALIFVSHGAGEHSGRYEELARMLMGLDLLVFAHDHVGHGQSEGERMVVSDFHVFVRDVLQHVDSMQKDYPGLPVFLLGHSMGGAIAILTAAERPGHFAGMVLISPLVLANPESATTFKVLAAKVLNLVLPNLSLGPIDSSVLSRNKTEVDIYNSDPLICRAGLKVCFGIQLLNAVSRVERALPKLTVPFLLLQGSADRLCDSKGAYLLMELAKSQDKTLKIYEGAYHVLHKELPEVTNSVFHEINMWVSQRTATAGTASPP
Method: The final supernatant was incubated with [^3H]-2-OG (10 µM) (ARC, MO, USA) at 37°C for 30 min as previously described, and reactions were stopped with a 2:1 (v/v) mixture of chloroform/methanol. [^3H]-glycerol release in the aqueous phase was measured by scintillation counting. […] Human supernatant (100 µg) was preincubated for 15 min at RT with 8 different concentrations of RG7774 (0.1-500 µM) in the incubation medium.

Human 12-LOX = target: T2, Human 12-LOX (Homo sapiens, UniProt P18054); assay: Human 12-LOX assay; type: biochemical; details: RG7774 10 µM; read-out: Mean ± SEM % inhibition of control, Human 12-LOX
T2 construct: human platelet-derived 12-LOX; from tissue; host or cells: human platelets
T2 sequence (P18054 whole entry): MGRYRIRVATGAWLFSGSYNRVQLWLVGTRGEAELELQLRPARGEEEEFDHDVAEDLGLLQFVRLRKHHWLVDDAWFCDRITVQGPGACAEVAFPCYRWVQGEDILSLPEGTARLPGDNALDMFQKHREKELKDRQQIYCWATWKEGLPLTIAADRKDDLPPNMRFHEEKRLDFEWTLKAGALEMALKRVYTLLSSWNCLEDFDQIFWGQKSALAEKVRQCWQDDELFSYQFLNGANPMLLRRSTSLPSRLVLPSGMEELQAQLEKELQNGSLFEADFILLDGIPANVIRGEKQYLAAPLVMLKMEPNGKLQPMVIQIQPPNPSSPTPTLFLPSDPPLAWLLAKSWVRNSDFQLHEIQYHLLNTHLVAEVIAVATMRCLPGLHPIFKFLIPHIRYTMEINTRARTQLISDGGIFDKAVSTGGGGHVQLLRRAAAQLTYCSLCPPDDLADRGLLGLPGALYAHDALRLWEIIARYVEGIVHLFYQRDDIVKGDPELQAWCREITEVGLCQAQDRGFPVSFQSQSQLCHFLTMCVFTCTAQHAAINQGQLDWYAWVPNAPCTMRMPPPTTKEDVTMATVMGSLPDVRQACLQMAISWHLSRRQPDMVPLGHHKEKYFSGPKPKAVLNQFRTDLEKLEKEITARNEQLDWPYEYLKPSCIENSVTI
Method: The inhibitory effects of different concentrations of RG7774 (0.1-500 µM) on the activities of human recombinant 5-LOX (Cayman Chemical Company #60402), 15-LOX (Cayman Chemical Company #10011263), and human platelet-derived 12-LOX were determined using the Biovision Lipoxygenase Activity Assay Kit (#BVN-K978-100). This kit converts the LOX substrate to an intermediate that reacted with the probe, generating a fluorescent product. The effect of RG7774 (preincubated for 15 min) at 10 µM on LOXs (5-LOX: 0.5 or 1.2 µg; 12-LOX: 20 µg; 15-LOX: 0.23 or 0.3 µg) was ascertained by adding the compounds directly to the incubation medium and the fluorescent signal, recorded at excitation/emission 500/536 nm at 30 sec intervals for 30-40 min, was directly proportional to LOX activity. […] The percentage of human 5-, 12-, and 15-LOX activity (control) was estimated from the amount of oxidized probe in the reaction using a standard curve.

For `Cn1nnnc1Cn1nnc2c(N3CC[C@H](O)C3)nc(C(C)(C)C)nc21` [RG7774, (S)-1-(5-tert-butyl-3-[(1-methyl-1H-tetrazol-5-yl)methyl]-3H-[1,2,3]triazolo[4,5-d]pyrimidin-7-yl)pyrrolidin-3-ol], the “% inhibition of control SB (n = 2)” value [1] was “–8.2%”, the “reduction of LPS-induced vascular leakage in the retina versus vehicle control” value ([2]; 6 mg/kg/day oral BID) was 102% and the “reduction of LPS-induced vascular leakage in the vitreous” value ([2]; 6 mg/kg/day oral BID) was 74%. The “reduction of LPS-induced vascular leakage in the retina versus vehicle control” value ([2]; 20 mg/kg/day oral BID) was 106%, the “reduction of LPS-induced vascular leakage in the vitreous” value ([2]; 20 mg/kg/day oral BID) was 76% and the inhibition at 10 µM (Human MAGL) was -9.7%. The inhibition at 10 µM (Human 12-LOX) was 1.5 ± 1.8%.
